Laboratory results taken from patent US20260176258A1, “A THIOETHER COMPOUND HAVING SOFT DRUG PROPERTIES, A PHARMACEUTICAL COMPOSITION AND USE THEREOF” (Prime Gene Therapeutics Co., Ltd., priority 2022, published 2026).
Values belong to the compound of their own block, whether it stands above or below them.

Experiments:
hTRPV3 = molecular target: T1, hTRPV3 (Homo sapiens, UniProt Q8NET8); test: Whole cell patch clamp of TRPV3 current in HEK-293 cells instantaneously expressing TRPV3; assay type: cell-based; conditions: for inhibition at 0.3 µM: HEK293, single concentration 0.3 μM, patch clamp, read-out: Inhibition rate on hTRPV3
T1 construct: expressed in transfected cells; host or cells: HEK-293
T1 sequence (Q8NET8 1-790): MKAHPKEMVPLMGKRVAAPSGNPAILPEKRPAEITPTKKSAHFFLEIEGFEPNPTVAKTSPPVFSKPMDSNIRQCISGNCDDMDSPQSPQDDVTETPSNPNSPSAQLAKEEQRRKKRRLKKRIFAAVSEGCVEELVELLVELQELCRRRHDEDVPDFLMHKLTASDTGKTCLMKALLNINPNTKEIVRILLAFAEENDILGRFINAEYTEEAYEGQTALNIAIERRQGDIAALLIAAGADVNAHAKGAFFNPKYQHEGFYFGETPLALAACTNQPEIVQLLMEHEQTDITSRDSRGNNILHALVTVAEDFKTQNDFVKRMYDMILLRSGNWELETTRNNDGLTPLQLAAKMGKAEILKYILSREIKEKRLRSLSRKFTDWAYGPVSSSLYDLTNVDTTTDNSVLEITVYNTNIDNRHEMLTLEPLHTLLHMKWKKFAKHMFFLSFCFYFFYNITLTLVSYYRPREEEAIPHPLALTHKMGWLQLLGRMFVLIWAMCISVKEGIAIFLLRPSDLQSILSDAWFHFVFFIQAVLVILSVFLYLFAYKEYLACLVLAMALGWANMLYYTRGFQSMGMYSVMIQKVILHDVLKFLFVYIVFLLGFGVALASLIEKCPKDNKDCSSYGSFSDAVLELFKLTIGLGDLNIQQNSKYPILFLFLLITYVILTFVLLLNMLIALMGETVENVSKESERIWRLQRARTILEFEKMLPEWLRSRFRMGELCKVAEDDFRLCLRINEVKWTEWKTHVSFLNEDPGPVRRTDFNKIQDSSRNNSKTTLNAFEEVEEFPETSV
Description: In this study, HEK-293 cells instantaneously expressing TRPV3 were used for experimental detection.
The operation steps are as follows:
The cells were cultured in DMEM medium containing 10% fetal bovine serum at a temperature of 37° C. and a carbon dioxide concentration of 5%.
Day 1: Cells were inoculated into a 6-well plate with 5×10^5 cells per well.
Day 2: Transfection was performed using Lipofectamine 3000 transfection reagent, with a plasmid to transfection reagent ratio of 1 μg: 2 μL. The total amount of plasmid used per well was 3 μg. Specifically, two sterile centrifuge tubes were taken and 100 μL Opti-MEM was added to each tube. 6 μL Lipofectamine 3000 was added to one tube and mixed well; and 3 μg plasmid was added to another tube and mixed well, and then 6 μL P3000 was added and mixed well; after that, the diluted plasmid DNA was addeds to diluted Lipofectamine 3000 and incubated at room temperature for 10-15 min. DNA liposome complex was dropped into the cells, shaked gently and mixed well, and then cultured in an incubator. The liquid was changed after 4 to 6 h.
Day 3: The cells were digested and seeded into 24 well plates with pre-placed cover slides, with 8×10^3 cells per well.
Day 4: Patch clamp testing was performed.
The voltage stimulation protocol for recording TRPV3 current using whole cell patch clamp is as follows: after forming a whole cell seal, a cell membrane voltage clamp was set at −80 mV. Firstly, a membrane potential was recorded at 0 mV, and then a voltage was command to start from −100 mV, to depolarize in the form of Ramp to 100 mV within 100 ms, and finally restore to 0 mV. Data collection was repeated every 5 seconds to observe the inhibitory effect of pharmaceutical on peak current. Experimental data was collected by EPC 10 amplifier (HEKA) and stored in PatchMaster (HEKA) software.
A microelectrode puller was used to pull the capillary glass tube into a recording electrode. The electrode filled with intracellular fluid was inserted into a microelectrode holder, and a microelectrode manipulator was operated under an inverted microscope to immerse the electrode in extracellular fluid and an electrode resistance (Rpip) was recorded. The electrode was brought into contact with the cell surface and a negative pressure suction was applied to form a high resistance seal (GΩ). At this point, a fast capacitance compensation was performed, and negative pressure was continued to apply in order to break the cell membrane, so that a whole cell recording mode was formed. Then, a slow capacitance compensation was performed and experimental parameters such as film capacitance (Cm) and series resistance (Rs) were recorded. No leakage compensation was provided.
When the TRPV3 current recorded by the whole cell had stabilized, administration was started. Each pharmaceutical concentration acted for 5 minutes (or until the current stabilized) before detecting the next concentration. A plurality of concentrations was tested for each test compound. A cover glass covered with cells was placed in a recording bath under an inverted microscope. A blank control extracellular solution and a working fluid for the compound to be tested sequentially flowed through the recording bath from low concentration to high concentration using gravity perfusion to act on the cells. Liquid exchange was performed using a peristaltic pump during recording. The current detected by each cell in the extracellular fluid without the compound served as its own control group. Each concentration was independently tested twice using at least two cells. All electrophysiological tests were conducted at room temperature.

hTRPV1 = hTRPV1 (Homo sapiens, UniProt Q8NER1); test: Patch clamp method, hTRPV1; assay type: cell-based
hTRPV4 = hTRPV4 (Homo sapiens, UniProt Q9HBA0); test: Patch clamp method, hTRPV4; assay type: cell-based
hTRPA1 = hTRPA1 (Homo sapiens, UniProt O75762); test: Patch clamp method, hTRPA1; assay type: cell-based
[1] = Liver microsome metabolism stability test, human; assay type: in vitro ADME; conditions: human liver microsomes 0.5 mg/mL, 1 μM compound, 37° C.
Description: (§1) Two separate experiments were conducted. a) NADPH: 10 μL of 20 mg/mL liver microsomes and 40 μL of 10 mM NADPH were added to a culture medium. The final concentrations of microsomes and NADPH were 0.5 mg/mL and 1 mM, respectively. b) NADPH free: 10 μL of 20 mg/mL liver microsomes and 40 μL of ultrapure H2O were added to a culture medium. The final concentration of microsomes was 0.5 mg/mL.
(§2) At the beginning of the reaction, 4 μL of 100 μM test compound solution or a control compound solution with a final concentration of 1 μM were added, and proceed at 37° C.
(§3) 50 μL aliquots were taken from the reaction solution at 0, 7, 15, 30, and 60 minutes. The reaction was stopped by adding 4 volumes of cold acetonitrile and IS (100 nM alprazolam, 200 nM labetalol, 200 nM caffeine, and 2 μM ketoprofen). The samples were centrifuged at 3220 grams for 40 minutes. 100 μL supernatant divided equally was mixed with 100 μL of ultrapure H2O, and use for LC-MS/MS analysis.

[2] = Liver microsome metabolism stability test, rat; assay type: in vitro ADME; conditions: rat liver microsomes 0.5 mg/mL, 1 μM compound, 37° C.
Description: as §1, §2, §3

Sequence of hTRPV4 (Q9HBA0 whole entry): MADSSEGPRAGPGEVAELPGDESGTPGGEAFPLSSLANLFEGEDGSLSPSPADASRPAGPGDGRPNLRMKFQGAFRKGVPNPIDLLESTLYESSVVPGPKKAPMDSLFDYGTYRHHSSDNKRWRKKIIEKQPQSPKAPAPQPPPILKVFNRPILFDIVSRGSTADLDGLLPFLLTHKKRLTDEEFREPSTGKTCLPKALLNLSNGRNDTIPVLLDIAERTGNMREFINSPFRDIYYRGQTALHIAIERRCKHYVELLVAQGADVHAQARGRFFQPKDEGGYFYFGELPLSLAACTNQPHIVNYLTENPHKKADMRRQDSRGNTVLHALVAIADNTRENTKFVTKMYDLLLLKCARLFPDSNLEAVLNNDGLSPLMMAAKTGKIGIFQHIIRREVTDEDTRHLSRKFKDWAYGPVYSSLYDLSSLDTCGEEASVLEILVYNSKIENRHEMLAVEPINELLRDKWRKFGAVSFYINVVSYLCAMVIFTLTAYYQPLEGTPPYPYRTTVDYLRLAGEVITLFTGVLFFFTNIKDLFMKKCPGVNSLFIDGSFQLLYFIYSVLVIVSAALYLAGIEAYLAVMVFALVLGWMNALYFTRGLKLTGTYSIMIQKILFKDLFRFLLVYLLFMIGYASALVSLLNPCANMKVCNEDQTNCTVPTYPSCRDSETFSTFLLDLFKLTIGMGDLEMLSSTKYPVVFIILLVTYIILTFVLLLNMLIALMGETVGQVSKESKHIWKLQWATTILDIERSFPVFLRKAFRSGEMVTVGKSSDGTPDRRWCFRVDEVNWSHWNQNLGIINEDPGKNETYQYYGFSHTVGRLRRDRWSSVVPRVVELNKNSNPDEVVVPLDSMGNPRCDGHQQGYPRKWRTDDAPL
Sequence of hTRPV1 (Q8NER1 whole entry): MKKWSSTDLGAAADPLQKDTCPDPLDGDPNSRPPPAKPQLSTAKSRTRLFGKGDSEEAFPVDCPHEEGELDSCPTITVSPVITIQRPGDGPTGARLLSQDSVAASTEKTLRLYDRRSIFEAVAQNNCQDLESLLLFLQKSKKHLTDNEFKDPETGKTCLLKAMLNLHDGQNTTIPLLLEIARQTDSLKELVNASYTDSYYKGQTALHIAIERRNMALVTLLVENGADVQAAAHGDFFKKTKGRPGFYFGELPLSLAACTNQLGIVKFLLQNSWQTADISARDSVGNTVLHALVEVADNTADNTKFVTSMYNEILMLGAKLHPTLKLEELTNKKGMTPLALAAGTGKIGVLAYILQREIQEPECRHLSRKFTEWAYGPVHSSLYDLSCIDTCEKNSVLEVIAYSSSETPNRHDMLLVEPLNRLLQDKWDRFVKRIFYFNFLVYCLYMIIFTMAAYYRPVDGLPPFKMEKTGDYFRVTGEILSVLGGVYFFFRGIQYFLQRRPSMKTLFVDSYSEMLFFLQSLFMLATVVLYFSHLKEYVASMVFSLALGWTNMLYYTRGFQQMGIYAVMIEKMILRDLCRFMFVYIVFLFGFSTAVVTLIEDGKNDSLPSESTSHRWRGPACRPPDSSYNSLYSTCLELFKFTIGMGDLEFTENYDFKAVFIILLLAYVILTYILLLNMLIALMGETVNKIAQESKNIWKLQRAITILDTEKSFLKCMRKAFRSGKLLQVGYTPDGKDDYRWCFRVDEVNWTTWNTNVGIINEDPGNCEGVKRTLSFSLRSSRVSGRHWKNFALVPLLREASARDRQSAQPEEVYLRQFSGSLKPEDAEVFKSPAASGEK
Sequence of hTRPA1 (O75762 whole entry): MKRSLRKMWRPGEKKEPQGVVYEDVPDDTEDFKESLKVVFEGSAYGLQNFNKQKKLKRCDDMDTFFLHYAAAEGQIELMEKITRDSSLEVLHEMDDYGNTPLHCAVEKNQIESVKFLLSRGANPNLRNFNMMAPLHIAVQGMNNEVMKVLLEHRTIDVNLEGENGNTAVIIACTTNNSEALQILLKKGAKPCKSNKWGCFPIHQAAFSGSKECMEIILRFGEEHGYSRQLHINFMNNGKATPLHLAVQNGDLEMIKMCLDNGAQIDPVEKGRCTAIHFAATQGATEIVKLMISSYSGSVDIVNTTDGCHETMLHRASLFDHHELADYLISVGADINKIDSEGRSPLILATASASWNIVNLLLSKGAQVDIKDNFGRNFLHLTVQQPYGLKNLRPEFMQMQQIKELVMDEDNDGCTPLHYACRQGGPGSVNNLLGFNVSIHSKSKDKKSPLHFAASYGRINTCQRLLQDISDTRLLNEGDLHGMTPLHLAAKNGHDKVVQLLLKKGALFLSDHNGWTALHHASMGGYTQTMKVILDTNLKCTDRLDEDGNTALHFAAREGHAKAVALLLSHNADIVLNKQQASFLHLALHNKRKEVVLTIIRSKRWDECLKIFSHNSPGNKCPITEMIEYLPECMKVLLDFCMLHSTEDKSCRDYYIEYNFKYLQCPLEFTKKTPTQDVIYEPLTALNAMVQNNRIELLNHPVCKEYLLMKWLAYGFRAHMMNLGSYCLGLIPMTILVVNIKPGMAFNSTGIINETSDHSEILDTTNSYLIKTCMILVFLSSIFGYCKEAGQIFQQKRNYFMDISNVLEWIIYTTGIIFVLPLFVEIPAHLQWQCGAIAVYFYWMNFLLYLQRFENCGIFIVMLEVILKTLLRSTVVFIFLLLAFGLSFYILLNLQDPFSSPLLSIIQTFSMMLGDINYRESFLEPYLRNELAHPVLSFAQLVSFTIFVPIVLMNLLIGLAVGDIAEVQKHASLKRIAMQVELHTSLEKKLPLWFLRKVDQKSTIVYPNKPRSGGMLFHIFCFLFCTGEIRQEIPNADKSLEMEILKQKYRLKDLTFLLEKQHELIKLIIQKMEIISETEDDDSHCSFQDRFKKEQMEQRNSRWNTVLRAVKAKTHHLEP

SMILES: CC(C)c1ccccc1-c1ccc(N2CC[C@H](Sc3ccc(C(F)(F)F)cn3)C2)c(CO)c1 [Example 7, ((S)-(2′-isopropyl-4-(3-(5-(trifluoromethyl)pyridin-2-yl)thio)pyrrolidin-1-yl)-[1,1′-biphenyl]-3-yl) methanol]
inhibition at 0.3 µM (hTRPV3): 38%

SMILES: CC(C)c1ccccc1-c1ccc(N2CC[C@H](Sc3ccc(Cl)cn3)C2)c(CO)c1 [Example 1, ((S)-(4-(3-(5-chloropyridin-2-yl)thio)pyrrolidin-1-yl)-2′-isopropyl-[1,1′-biphenyl]-3-yl) methanol]
inhibition at 0.3 µM (hTRPV3): 71.6%
in vitro Clint [1]: 135.00 microliters/minute/milligrams
half-life at 1 μM ([1]; read-out: in vitro T1/2): 10.3 min
in vitro Clint [2]: 112.14 microliters/minute/milligrams
half-life at 1 μM ([2]; read-out: in vitro T1/2): 12.4 min

SMILES: CC(C)c1ccccc1-c1ccc(N2CC[C@H]([S+]([O-])c3ccc(Cl)cn3)C2)c(CO)c1 (stereo partly shown) [Example 3]
inhibition at 0.3 µM (hTRPV3): 9.96%

Second part, the compound after the results:

inhibition at 0.3 µM (hTRPV3): 72.8%
Selectivity ratio (hTRPV3) (hTRPV3; ratio of inhibition rate on TRPV3 to inhibition rate on this channel, 0.3 μM): 1x
inhibition at 0.3 µM (hTRPV1; 0.3 μM, patch clamp method, read-out: Inhibition rate (%) on hTRPV1): 0.48%
Selectivity ratio (hTRPV1) (hTRPV1; ratio of inhibition rate on TRPV3 to inhibition rate on hTRPV1, 0.3 μM): 152x
inhibition at 0.3 µM (hTRPV4; 0.3 μM, patch clamp method, read-out: Inhibition rate (%) on hTRPV4): 36.2%
Selectivity ratio (hTRPV4) (hTRPV4; ratio of inhibition rate on TRPV3 to inhibition rate on hTRPV4, 0.3 μM): 2x
inhibition at 0.3 µM (hTRPA1; 0.3 μM, patch clamp method, read-out: Inhibition rate (%) on hTRPA1): 2.44%
Selectivity ratio (hTRPA1) (hTRPA1; ratio of inhibition rate on TRPV3 to inhibition rate on hTRPA1, 0.3 μM): 30x
SMILES: OCc1cc(-c2ccccc2C2CC2)ccc1N1CC[C@H](Sc2ccc(Cl)cn2)C1 [Example 4, ((S)-(4-(3-(5-chloropyridin-2-yl)thio)pyrrolidin-1-yl)-2′-cyclopropyl-[1,1′-biphenyl]-3-yl) methanol]

inhibition at 0.3 µM (hTRPV3): 18.6%
SMILES: CC(C)c1ccccc1-c1ccc(N2CC[C@H](S(=O)(=O)c3ccc(Cl)cn3)C2)c(CO)c1 [Example 2, ((S)-(4-(3-(5-chloropyridin-2-yl)sulfonyl)pyrrolidin-1-yl)-2′-isopropyl-[1,1′-biphenyl]-3-yl) methanol]

inhibition at 0.3 µM (hTRPV3): 23.1%
SMILES: O=S(=O)(c1ccc(Cl)cn1)[C@H]1CCN(c2ccc(-c3ccccc3C3CC3)cc2CO)C1 [Example 5, (S)-(4-(3-((5-chloropyridin-2-yl)sulfonyl)pyrrolidin-1-yl)-2′-cyclopropyl-[1,1′-biphenyl]-3-yl) methanol]

inhibition at 0.3 µM (hTRPV3): 4.73%
SMILES: [O-][S+](c1ccc(Cl)cn1)[C@H]1CCN(c2ccc(-c3ccccc3C3CC3)cc2CO)C1 (stereo partly shown) [Example 6]

inhibition at 0.3 µM (hTRPV3): 97.8%
SMILES: OCc1cc(-c2ccccc2C2CC2)ccc1N1CC[C@H](Sc2ccc(F)cn2)C1 [Example 10, ((S)-(4-(3-(5-fluoropyridin-2-yl)thio)pyrrolidin-1-yl)-2′-cyclopropyl-[1,1′-biphenyl]-3-yl) methanol]
